Measurements as given in patent US10847829B2, “Quinone and hydroquinone based flow battery” (President and Fellows of Harvard College, priority 2013, dated 2020).

How the values were obtained:
[1] = Solubility; assay type: physicochemical; conditions: pH 0
[2] = Cyclic voltammetry (CV); assay type: physicochemical; conditions: about 1 mM in 1M sulfuric acid in water
Method: [drawing 47] (concentration about 1 mM in 1M sulfuric acid in water) was studied by cyclic voltammetry (CV).
[drawing 48] (concentration about 1 mM in 1M sulfuric acid in water) was studied by CV.
[drawing 50] (concentration about 1 mM in 1M sulfuric acid in water) was studied by CV.
[drawing 53] (concentration about 1 mM in 1M sulfuric acid in water) was studied by CV.

Compound	solubility [1]	redox peaks location, higher-potential set [2]	redox peaks location, lower-potential set [2]
9,10-anthraquinone-2,7-disulfonate [Scheme 1 ID 1]	~1000 mM	–	–
O=C1c2ccccc2C(=O)c2c(O)c(S(=O)(=O)O)cc(O)c21 [Example 2, 1,4-dihydroxy-9,10-anthraquinone-3-sulfonic acid]	–	~1.08 V	~0.11 V
O=C1c2ccccc2C(=O)c2c1cc(S(=O)(=O)O)c(O)c2O [Example 3, 1,2-dihydroxy-9,10-anthraquinone-3-sulfonic acid]	–	~1.3 V	~0.10 V
O=C1c2ccccc2C(=O)c2c(O)c(SCCS(=O)(=O)O)c(SCCS(=O)(=O)O)c(O)c21 [Example 6, 2,2′-((1,4-dihydroxy-9,10-dioxo-9,10-dihydroanthracene-2,3-diyl)bis(sulfanediyl))bis(ethane-1-sulfonic acid)]	–	~1.08 V	~0.11 V
